# System: serum sPLA2
# Assay: Effect of twice-a-day oral A-002 on serum sPLA2 levels in subjects with stable coronary artery disease (Example 6)
# Assay type: in vivo, human
# Method: The protocol for preparing standard curve, test, and quality control samples for use in the assay disclosed herein is set forth in Example 5. Samples are prepared according to this protocol, then loaded in duplicate onto a plate (Cayman catalog no. 485002 or equivalent) that has been pre-coated with a monoclonal sPLA2 antibody (“capture antibody”) that specifically binds sPLA2. In certain embodiments, the capture antibody may interact with a specific form of sPLA2, such as for example sPLA2 type IIA.
# sPLA2 acetylcholinesterase:Fab′ conjugate (AChE:Fab′) (“conjugate”) (Cayman catalog no. 485000 or equivalent) is reconstituted in EIA buffer (Cayman catalog no. 400060 or equivalent). Cayman EIA buffer is 1M phosphate, pH 7.0, 1% BSA, 4M NaCl, 10 mM EDTA, and 0.1% sodium azide. Reconstituted conjugate is added to each well of the plate. The conjugate binds a different sPLA2 epitope than the capture antibody, allowing the capture antibody and the conjugate to form a “sandwich” that is immobilized on the plate. Excess reagents are washed away, and the plate is covered and incubated overnight at 2-8° C.
# Prior to development, the wells are washed five to six times with wash buffer (Cayman catalog no. 400062 or equivalent). To develop the plate, Ellman's Reagent (Cayman catalog no. 400050 or equivalent) is reconstituted in water and added to each well according to manufacturer instructions. The reconstituted Ellman's Reagent must be used the same day it is prepared because it is unstable. Ellman's Reagent contains an AChE substrate. Specifically, Ellman's Reagent contains acetylthiocholine and 5,5′-dithio-bis-(2-nitrobenzoic acid). Hydrolysis of acetylthiocholine by acetylcholinesterase produces thiocholine, which reacts with 5,5′-dithio-bis-(2-nitrobenzoic acid) to produce 5-thio-2-nitrobenzoic acid. 5-thio-2-nitrobenzoic acid has a strong absorbance at 412 nm. The intensity of absorbance at this wavelength is directly proportional to the concentration of bound conjugate, which is in turn is directly proportional to the concentration of sPLA2 present (Absorbance a [AChE:Fab′ conjugate] α [sPLA2]). During the development step, the plate is shaken, preferably in the dark. In certain embodiments the development time for the assay is 0.5 to 3 hours, preferably 1 to 1.5 hours. At the end of the development period, the high sPLA2 standards should have greater yellow color development than the zero standards. Absorbance of each well is measured at 400-420 nm using a micro-well plate reader. In certain embodiments, absorbance is measured at about 405 nm.
# Absorbance readings for duplicate wells are averaged, and the relative standard deviation and % CV are calculated. Standard curve data are used to generate a four parameter curve, and quality control and test samples are measured against the appropriate standard curve (i.e., the standard curve with the same serum content). In order for a test to be considered valid, variation between duplicate wells should be no more than about 25%, and negative controls (blanks) for each standard curve should have a mean absorbance of less than about 0.3.
# The method disclosed herein for measuring sPLA2 levels in serum was utilized to determine the effect of administering certain sPLA2 inhibitors on sPLA2 levels in 84 human subjects. The subjects included 24 subjects with diabetes, 32 subjects with metabolic syndrome, and 75 subjects receiving statin treatment. Subjects were administered the sPLA2 inhibitor A-002, a prodrug form of A-001, twice a day at varying dosages from 50 to 500 mg. The structures of A-002and A-001 are set forth below. At two weeks and four weeks after the first administration, sPLA2 levels were measured and compared to pre-administration baseline levels.
# 84 subjects with stable coronary artery disease were randomized to receive placebo or A-002 via oral administration twice a day over a four week administration period. […]
# [1] = A-002 (100 mg), non-statin subgroup of ITT population
# [2] = A-002 (250 mg), ITT subjects exhibiting at least 3 out of 5 metabolic syndrome criteria
# [3] = A-002 (250 mg), non-statin subgroup of ITT population
# [4] = A-002 (500 mg), ITT subjects exhibiting at least 3 out of 5 metabolic syndrome criteria
smiles,measurement,setting,value
"CCc1c(C(=O)C(N)=O)c2c(OCC(=O)OC)cccc2n1Cc1ccccc1 [A-002, [[3-(2-Amino-1,2-dioxoethyl)-2-ethyl-1-(phenylmethyl)-1H-indol-4-yl]oxy]acetic acid methyl ester]","sPLA2 level, Change from baseline at week 2, Mean",[1],-1.90 ng/mL
same,"sPLA2 level, Change from baseline at week 2, Median",[1],-1.90 ng/mL
same,"sPLA2 level, Change from baseline at week 2, Range",[1],−1.90 to −1.90 ng/ml
same,"sPLA2 level, Change from baseline at week 4, Mean",[1],-3.05 ng/mL
same,"sPLA2 level, Change from baseline at week 4, Median",[1],-3.05 ng/mL
same,"sPLA2 level, Change from baseline at week 4, Range",[1],-4.40 to -1.70 ng/mL
same,"sPLA2 level, Week 2, Mean",[1],0.90 ng/mL
same,"sPLA2 level, Week 2, Median",[1],0.90 ng/mL
same,"sPLA2 level, Week 2, Range",[1],0.90 to 0.90 ng/ml
same,"sPLA2 level, Week 4, Mean",[1],0.80 ng/mL
same,"sPLA2 level, Week 4, Median",[1],0.80 ng/mL
same,"sPLA2 level, Week 4, Range",[1],0.50 to 1.10 ng/mL
same,"sPLA2 level, Baseline, Mean",[2],2.90 ng/mL
same,"sPLA2 level, Baseline, Median",[2],2.20 ng/mL
same,"sPLA2 level, Baseline, Range",[2],1.80 to 4.70 ng/mL
same,"sPLA2 level, Change from baseline at week 2, Mean",[2],-1.65 ng/mL
same,"sPLA2 level, Change from baseline at week 2, Median",[2],-1.65 ng/mL
same,"sPLA2 level, Change from baseline at week 2, Range",[2],-1.90 to -1.40 ng/mL
same,"sPLA2 level, Change from baseline at week 4, Mean",[2],-1.75 ng/mL
same,"sPLA2 level, Change from baseline at week 4, Median",[2],-1.75 ng/mL
same,"sPLA2 level, Change from baseline at week 4, Range",[2],-2.10 to -1.40 ng/mL
same,"sPLA2 level, Week 2, Mean",[2],0.33 ng/mL
same,"sPLA2 level, Week 2, Median",[2],0.30 ng/mL
same,"sPLA2 level, Week 2, Range",[2],0.30 to 0.40 ng/mL
same,"sPLA2 level, Week 4, Mean",[2],0.27 ng/mL
same,"sPLA2 level, Week 4, Median",[2],0.30 ng/mL
same,"sPLA2 level, Week 4, Range",[2],0.10 to 0.40 ng/mL
same,"sPLA2 level, Baseline, Mean",[3],3.40 ng/mL
same,"sPLA2 level, Baseline, Median",[3],3.40 ng/mL
same,"sPLA2 level, Baseline, Range",[3],3.40 to 3.40 ng/ml
same,"sPLA2 level, Change from baseline at week 2, Mean",[3],-2.10 ng/mL
same,"sPLA2 level, Change from baseline at week 2, Median",[3],-2.10 ng/mL
same,"sPLA2 level, Change from baseline at week 2, Range",[3],−2.10 to −2.10 ng/ml
same,"sPLA2 level, Change from baseline at week 4, Mean",[3],-2.20 ng/mL
same,"sPLA2 level, Change from baseline at week 4, Median",[3],-2.20 ng/mL
same,"sPLA2 level, Change from baseline at week 4, Range",[3],−2.20 to −2.20 ng/ml
same,"sPLA2 level, Week 2, Mean",[3],1.30 ng/mL
same,"sPLA2 level, Week 2, Median",[3],1.30 ng/mL
same,"sPLA2 level, Week 2, Range",[3],1.30 to 1.30 ng/ml
same,"sPLA2 level, Week 4, Mean",[3],1.20 ng/mL
same,"sPLA2 level, Week 4, Median",[3],1.20 ng/mL
same,"sPLA2 level, Week 4, Range",[3],1.20 to 1.20 ng/ml
same,"sPLA2 level, Baseline, Mean",[4],3.05 ng/mL
same,"sPLA2 level, Baseline, Median",[4],3.40 ng/mL
same,"sPLA2 level, Baseline, Range",[4],1.20 to 4.40 ng/mL
same,"sPLA2 level, Change from baseline at week 2, Mean",[4],-2.94 ng/mL
same,"sPLA2 level, Change from baseline at week 2, Median",[4],-3.50 ng/mL
same,"sPLA2 level, Change from baseline at week 2, Range",[4],-4.00 to -1.15 ng/mL
same,"sPLA2 level, Change from baseline at week 4, Mean",[4],-3.04 ng/mL
same,"sPLA2 level, Change from baseline at week 4, Median",[4],-3.70 ng/mL
same,"sPLA2 level, Change from baseline at week 4, Range",[4],-4.35 to -1.15 ng/mL
same,"sPLA2 level, Week 2, Mean",[4],0.16 ng/mL
same,"sPLA2 level, Week 2, Median",[4],0.05 ng/mL
same,"sPLA2 level, Week 2, Range",[4],0.05 to 0.40 ng/mL
same,"sPLA2 level, Week 4, Mean",[4],0.06 ng/mL
same,"sPLA2 level, Week 4, Median",[4],0.05 ng/mL
